Source: paper PMC5382548 (Scientific Reports, 2015)

Key:
[1] = system: SW620 metastatic colon cancer cells; assay: Guava ViaCount assay, SW620; format: cell-based, human; settings: IC65 concentration, 72 h
Source text: The ability of IQcs to induce cell death in colon cancer cell lines with different genotypes (HCT116 and SW620) and in the non-malignant cell line HEK293T was studied by a Guava Via Count assay and compared with the behaviour of 5-FU and TMPyP4 at equitoxic concentrations (IC50 and IC65). Results in Figure 7 show dose-dependent induction of cell death, mainly by apoptosis, by all tested compounds in the HCT116 colon cancer cell line. […] In SW620 metastatic colon cancer cells, cell death induction was highly dependent on the number and position of side chains in IQc compounds. […]
Figure 7 Evaluation of the effect of IQc on cell viability using the ViaCount assay. […] Results are expressed as the mean percentage (%) of viable (white), mid-apoptotic (grey) and dead (black) cells ± SEM, of at least three different experiments, for (a) IC50, and for (b) IC65 compound concentrations. a, p < 0.05; b, p < 0.01 from DMSO (vehicle control); c, p < 0.05; and d, p < 0.01 from 5-FU. […]
Taqman Real-time PCR reactions were performed using 1.5 µg of total RNA, using High Capacity RNA to cDNA kit, according to the manufacturer`s instruction. […] The comparative threshold cycle method was used to calculate the amplification factor, where the threshold cycle (Ct) is defined as the cycle number at which the fluorescence passes the fixed threshold intensity level. […]

[2] = system: F21T G4; assay: FRET melting competition assay, labelled F21T; format: binding, human; settings: ligand 1 μM, labelled F21T 0.2 μM
Protocol: To assess selectivity of the IQc compounds 2d and 3e to different DNA sequences, we performed competitive FRET experiments with 0.2 μM of labelled KRAS21R and F21T G4 and increasing concentrations of two non-fluorescent competitors, 26mer ds-DNA or the human telomeric sequence (HT21). A decrease in ΔTm indicates the displacement of the ligand from labelled G4 by the competitor DNA.
Figure 3 FRET melting competition assay data for (a) 2d and (b) 3e (1 μM) in complex with KRAS21R and F21T G4s (0.2 μM), with increasing concentrations of non-labeled 26ds, HT21 or KRAS21R (0.4 to 25 μM) competitor, in K-cacodylate buffer (pH 7.4, 60 mM K^+).
Oligonucleotide sequences were purchased from Eurofins MWG Synthesis GmbH, Germany or STAB VIDA Genomics Lab, Caparica, Lisbon, Portugal. The labelled oligonucleotides used in the FRET assays had attached the donor fluorophore FAM (6-carboxyfluorescein) and the acceptor fluorophore TAMRA (6-carboxytetramethylrhodamine): KRAS21R: 5′-FAM-[…]-TAMRA-3′; KRAS32R: 5′-FAM-[…]-TAMRA-3′; UTR-1: 5′-FAM-GCGGCGGCGGAGG-TAMRA-3′; UTR-2: 5′-FAM-[…]-TAMRA-3; T-Loop:5′-FAM-[…]-TAMRA-3′; F21T: 5′-FAM-[…]-TAMRA-3′. Non-labelled oligonucleotides were used in FRET competition assays and in the spectroscopic studies: ds26: - d(5′-CAATCGGATCGAATT CGATCCGATTG-3′); KRAS21R: 5′-[…]-3′; HT21: 5′-[…]-3′. […]

[3] = system: 26ds (ds26) (DNA, duplex) CAATCGGATCGAATTCGATCCGATTG; assay: spectrofluorimetric titration, one-site saturation fit; settings: 60 mM K+; K-cacodylate pH 7.4, 25 °C; 1 μM compound; SD ≤ 0.2 × 10^6

SMILES: C[n+]1ccc(-c2c3nc(c(-c4cc[n+](C)cc4)c4ccc([nH]4)c(-c4cc[n+](C)cc4)c4ccc([nH]4)c(-c4cc[n+](C)cc4)c4nc2C=C4)C=C3)cc1 [TMPyP4, reference compound]
- Cell death induced, SW620 [1]: > 20%

SMILES: CCN(CC)CCCNc1ccc2c(c1)[nH]c1c2c[n+](C)c2ccc(NCCCN(CC)CC)cc12.[Cl-] [3e]
- Concentration of competitor KRAS21R reducing the induced thermal stability of F21T by 50% [2]: 2 µM

SMILES: Cn1cc2c3ccccc3nc-2c2cc(Br)ccc21 [2a, 2-bromo-5-methyl-indolo[3,2-c]quinoline]
- Ka [3]: 800000 M⁻¹
